IC50 data for four compounds are collected here from article PMC7125355 (Translational Oncology, 2020).

The test system of one assay is HL60^Flt3-WT. Description: cells. Details: species or system human leukemia lines named per line.
For another assay, the system named is U937^Flt3-WT. As to the kind of experiment: cells. More on the design: species or system human leukemia lines named per line.
A further assay concerns MOLT4^Flt3-WT. As to the kind of experiment: cells. Details: species or system human leukemia lines named per line.
Another assay relates to EOL-1^PDGFRα. Description: cells. Details: species or system human leukemia lines named per line.
The test system of another assay is KG1^FGFR1OP2-FGFR1. Description: cells. Details: species or system human leukemia lines named per line.
The next assay deals with BaF3-tel-FLT3-D835Y. Description: cells. Details: species or system Ba/F3 stable lines.
The subject of a further assay is BaF3-FLT3-D835V. Description: cells. More on the design: species or system Ba/F3 stable lines.
In another assay the test system is BaF3-FLT3-ITD-Y842H. Description: cells. More on the design: species or system Ba/F3 stable lines.
For a further assay, the system named is BaF3-FLT3-D835H. Description: cells. Details: species or system Ba/F3 stable lines.
In the next assay the test system is BaF3-FLT3-ITD-D835Y. As to the kind of experiment: cells. More on the design: species or system Ba/F3 stable lines.
The subject of the next assay is BaF3-tel-FLT3-R834Q. As to the kind of experiment: cells. More on the design: species or system Ba/F3 stable lines.
For a further assay, the system named is BaF3-FLT3-MOLM-ITD. As to the kind of experiment: cells. Details: species or system Ba/F3 stable lines.
The subject of the next assay is BaF3-FLT3-ITD-N676D. Description: cells. More on the design: species or system Ba/F3 stable lines.
A further assay relates to BaF3-tel-FLT3-K663Q. Description: cells. Details: species or system Ba/F3 stable lines.
The target in the next assay is PDGFRα (Homo sapiens, UniProt P16234). Description: FRET-based Z'-Lyte kinase assay, parallel comparison. Type of assay: biochemical.
The next assay relates to MV411^Flt3-ITD. Description: cells. Details: species or system human leukemia lines named per line.
Another assay concerns THP1^Flt3-WT. As to the kind of experiment: cells. Details: species or system human leukemia lines named per line.
For another assay, the system named is MOLM-13^Flt3-ITD. Description: cells. More on the design: species or system human leukemia lines named per line.
The test system of the next assay is NB4^Flt3-WT. Description: cells. More on the design: species or system human leukemia lines named per line. The note with it: read-out: Quizaritinib (AC220); 72 h proliferation, mean ± SD; inhibitor.
In a further assay the test system is MEG01^Flt-WT. Description: cells. More on the design: species or system human leukemia lines named per line. The note with it: read-out: Quizaritinib (AC220); 72 h proliferation, mean ± SD; inhibitor.
Another assay deals with BaF3-FLT3-ITD-F691I. Description: cells. Details: species or system Ba/F3 stable lines. The note with it: read-out: Quizartinib / (AC220); 72 h proliferation; inhibitor.
In a further assay the test system is BaF3-FLT3-ITD-D835I. Description: cells. Details: species or system Ba/F3 stable lines. As to conditions: read-out: Quizartinib / (AC220); 72 h proliferation; inhibitor.
In a further assay the test system is BaF3-FLT3-ITD-D835V. Description: cells. More on the design: species or system Ba/F3 stable lines. As to conditions: read-out: Quizartinib / (AC220); 72 h proliferation; inhibitor.
A further assay relates to BaF3-FLT3-ITD-D835N. Description: cells. More on the design: species or system Ba/F3 stable lines. The note with it: read-out: Quizartinib / (AC220); 72 h proliferation; inhibitor.
A further assay deals with BaF3-tel-FLT3. As to the kind of experiment: cells. More on the design: species or system Ba/F3 stable lines. As to conditions: read-out: Quizartinib / (AC220); 72 h proliferation; inhibitor.
The test system of a further assay is BaF3-FLT3-ITD-D835G. Description: cells. More on the design: species or system Ba/F3 stable lines. As to conditions: read-out: Quizartinib / (AC220); 72 h proliferation; inhibitor.
The next assay deals with BaF3-Tel-FLT3-ITD. Description: cells. More on the design: species or system Ba/F3 stable lines. The note with it: read-out: Quizartinib / (AC220); 72 h proliferation; inhibitor.
A further assay has as its system BaF3-FLT3-ITD-G697R. Description: cells. Details: species or system Ba/F3 stable lines. The note with it: read-out: Quizartinib / (AC220); 72 h proliferation; inhibitor.
The next assay relates to BaF3-FLT3-ITD-Y842R. As to the kind of experiment: cells. More on the design: species or system Ba/F3 stable lines. As to conditions: read-out: Quizartinib / (AC220); 72 h proliferation; inhibitor.
The mark [1] stands for this setting: 72 h, read-out: GZD824 (HQP1351).
[2] abbreviates: Mus musculus, BaF3, 72 h, read-out: GZD824.
The mark [3] stands for this setting: Mus musculus, BaF3, 72 h, read-out: Midostaurin / (PKC412).
Where [4] appears, read: 72 h, read-out: Gilteritinib (ASP2215).
[5] abbreviates: read-out: Quizaritinib (AC220), 72 h proliferation, mean ± SD, inhibitor.
Setting [6] is: read-out: Quizartinib / (AC220), 72 h proliferation, inhibitor.

Structures are written as SMILES. Read-outs that look alike come from different tables or passages of the source.

PDGFRα, sequence (P16234 24-1089): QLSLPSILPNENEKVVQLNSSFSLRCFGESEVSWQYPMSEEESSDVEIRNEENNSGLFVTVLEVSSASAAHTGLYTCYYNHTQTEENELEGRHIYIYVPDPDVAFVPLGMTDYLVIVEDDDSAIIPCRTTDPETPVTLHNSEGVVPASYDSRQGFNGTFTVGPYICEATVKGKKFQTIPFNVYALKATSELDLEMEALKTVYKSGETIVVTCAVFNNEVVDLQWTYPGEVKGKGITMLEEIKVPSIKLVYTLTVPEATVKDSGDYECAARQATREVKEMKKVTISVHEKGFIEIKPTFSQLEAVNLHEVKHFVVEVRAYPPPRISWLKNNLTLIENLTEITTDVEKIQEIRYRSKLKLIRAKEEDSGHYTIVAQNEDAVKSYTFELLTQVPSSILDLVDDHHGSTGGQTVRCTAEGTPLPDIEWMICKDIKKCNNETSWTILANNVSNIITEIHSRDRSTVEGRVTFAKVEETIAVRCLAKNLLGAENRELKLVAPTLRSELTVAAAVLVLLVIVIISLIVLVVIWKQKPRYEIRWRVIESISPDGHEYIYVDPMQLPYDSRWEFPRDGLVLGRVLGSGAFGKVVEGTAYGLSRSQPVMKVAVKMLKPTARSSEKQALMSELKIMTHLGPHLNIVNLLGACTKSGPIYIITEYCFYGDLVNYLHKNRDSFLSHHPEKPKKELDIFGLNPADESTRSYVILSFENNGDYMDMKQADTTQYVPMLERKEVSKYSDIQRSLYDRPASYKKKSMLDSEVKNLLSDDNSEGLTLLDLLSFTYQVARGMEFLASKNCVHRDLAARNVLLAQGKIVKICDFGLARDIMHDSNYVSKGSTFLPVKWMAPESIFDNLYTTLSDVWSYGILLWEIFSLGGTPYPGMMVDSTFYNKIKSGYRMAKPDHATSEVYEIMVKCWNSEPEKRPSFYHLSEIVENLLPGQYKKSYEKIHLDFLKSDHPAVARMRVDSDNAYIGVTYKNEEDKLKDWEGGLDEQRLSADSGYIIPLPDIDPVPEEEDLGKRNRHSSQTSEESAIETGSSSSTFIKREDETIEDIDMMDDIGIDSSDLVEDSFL

As to `Cc1ccc(C(=O)Nc2ccc(CN3CCN(C)CC3)c(C(F)(F)F)c2)cc1C#Cc1cnc2[nH]ncc2c1` [GZD824], the IC50 with HL60^Flt3-WT (setting [1]) stood at 922 ± 210 nM; with U937^Flt3-WT (setting [1]), 1170 ± 105 nM; in the assay with MOLT4^Flt3-WT (setting [1]), 246 ± 139 nM; in the assay with EOL-1^PDGFRα (setting [1]), 7.56 ± 2.73 nM; in the assay with KG1^FGFR1OP2-FGFR1 (setting [1]) it was 3.66 ± 1.93 nM; with BaF3-tel-FLT3-D835Y (setting [2]) it was 5.7 nM. Moreover, the IC50 with BaF3-FLT3-D835V (setting [2]) is 34.7 nM; in the assay on BaF3-FLT3-ITD-Y842H (setting [2]), 3.2 nM; in the assay on BaF3-FLT3-D835H (setting [2]), 17.6 nM; with BaF3-FLT3-ITD-D835Y (setting [2]), 35.7 nM; in the assay on BaF3-tel-FLT3-R834Q (setting [2]) it was 76.2 nM; in the assay with BaF3-FLT3-MOLM-ITD (setting [2]), 0.8 nM. For the same compound, the IC50 in the assay on BaF3-FLT3-ITD-N676D (setting [2]) turned out to be 7.2 nM; with BaF3-tel-FLT3-K663Q (setting [2]) it was 853 nM.
On to `CO[C@@H]1[C@H](N(C)C(=O)c2ccccc2)C[C@H]2O[C@]1(C)n1c3ccccc3c3c4c(c5c6ccccc6n2c5c31)C(=O)NC4` [Midostaurin], for which the IC50 in the assay with BaF3-tel-FLT3-R834Q (setting [3]) was 63.1 nM; with BaF3-FLT3-ITD-N676D (setting [3]) it was 62.4 nM.
For the compound `CCc1nc(C(N)=O)c(Nc2ccc(N3CCC(N4CCN(C)CC4)CC3)c(OC)c2)nc1NC1CCOCC1` [gilteritinib], the IC50 is 148 ± 7.78 nM against PDGFRα; 3.34 ± 0.91 nM in the assay on MV411^Flt3-ITD (setting [4]); 689 ± 398 nM in the assay on HL60^Flt3-WT (setting [4]); above 1000 nM in the assay on THP1^Flt3-WT (setting [4]); 9.35 ± 2.23 nM with MOLM-13^Flt3-ITD (setting [4]).
In the case of `CC(C)(C)c1cc(NC(=O)Nc2ccc(-c3cn4c(n3)sc3cc(OCCN5CCOCC5)ccc34)cc2)no1` [quizartinib], the IC50 with NB4^Flt3-WT was 1990 ± 890 nM; in the assay with MEG01^Flt-WT it was 3310 ± 1560 nM; in the assay on MV411^Flt3-ITD (setting [5]), 1.07 ± 0.32 nM; in the assay on HL60^Flt3-WT (setting [5]) it was 1170 ± 72.1 nM; in the assay with THP1^Flt3-WT (setting [5]), above 1000 nM; with U937^Flt3-WT (setting [5]), 1430 ± 246 nM. The IC50 in the assay with MOLT4^Flt3-WT (setting [5]) amounted to 1950 ± 1750 nM; with EOL-1^PDGFRα (setting [5]) it was 1510 ± 451 nM; with MOLM-13^Flt3-ITD (setting [5]) it was 5.67 ± 9.29 nM; with KG1^FGFR1OP2-FGFR1 (setting [5]) it was 1020 ± 572 nM; with BaF3-FLT3-ITD-F691I, 95 nM; in the assay with BaF3-tel-FLT3-D835Y (setting [6]), 2.4 nM. The IC50 was 40.2 nM in the assay with BaF3-FLT3-D835V (setting [6]); 5.3 nM in the assay with BaF3-FLT3-ITD-Y842H (setting [6]); 183 nM in the assay on BaF3-FLT3-ITD-D835I; 126 nM in the assay with BaF3-FLT3-ITD-D835V; 1.6 nM in the assay with BaF3-FLT3-ITD-D835N; 3.1 nM in the assay with BaF3-tel-FLT3. In addition, the IC50 in the assay on BaF3-FLT3-ITD-D835G was 4.3 nM; with BaF3-FLT3-D835H (setting [6]), 4 nM; in the assay with BaF3-FLT3-ITD-D835Y (setting [6]), 35.5 nM; in the assay on BaF3-tel-FLT3-R834Q (setting [6]), above 1000 nM; in the assay on BaF3-Tel-FLT3-ITD, 2 nM; in the assay on BaF3-FLT3-ITD-G697R, 22.8 nM. Also, the IC50 in the assay with BaF3-FLT3-MOLM-ITD (setting [6]) is 0.8 nM; in the assay with BaF3-FLT3-ITD-N676D (setting [6]), 8.3 nM; in the assay with BaF3-FLT3-ITD-Y842R, 7.2 nM; in the assay on BaF3-tel-FLT3-K663Q (setting [6]) it was above 1000 nM.
